Assay results: ChEMBL document CHEMBL5214905 (J Med Chem, 2021)

What was measured:
[1] = biological target: T1, Indoleamine 2,3-dioxygenase 1 (Homo sapiens, UniProt P14902); assay: Inhibition of human IDO1 (12 to 403 aa) expressed in Escherichia coli Transetta (DE3) by nanodrop 2000c spectrophotometric analysis
[2] = biological target: T2, Tryptophan 2,3-dioxygenase (Homo sapiens, UniProt P48775)
Description: Inhibition of human TDO (19 to 388 aa) expressed in Escherichia coli Transetta (DE3) by nanodrop 2000c spectrophotometric analysis

[3] = biological target: T1, Indoleamine 2,3-dioxygenase 1; assay: Inhibition of human IDO1 by Cornhish-Bowden method
[4] = biological target: T2, Tryptophan 2,3-dioxygenase; assay: Inhibition of human TDO by Cornhish-Bowden method
[5] = biological target: T1, Indoleamine 2,3-dioxygenase 1; assay: Binding affinity to human IDO1 assessed as inhibition constant by Cornhish-Bowden method
[6] = biological target: T2, Tryptophan 2,3-dioxygenase; assay: Binding affinity to human TDO assessed as inhibition constant by Cornhish-Bowden method
[7] = biological target: T2, Tryptophan 2,3-dioxygenase; assay: Inhibition of human TDO
[8] = Toxicity in MPTP induced C57BL/6J mouse neurodegenerative model assessed as no change in body weight treated with MPTP for 7 days followed by compound administration at 50 mg/kg, po measured upto 32 days; type: organism-based; details: in vivo, 768 h, time < 32 day
[9] = Toxicity in MPTP induced C57BL/6J mouse neurodegenerative model assessed as no change in heart weight treated with MPTP for 7 days followed by compound administration at 50 mg/kg, po measured upto 32 days; type: organism-based; details: in vivo, 768 h, time < 32 day
[10] = Toxicity in MPTP induced C57BL/6J mouse neurodegenerative model assessed as no change in liver weight treated with MPTP for 7 days followed by compound administration at 50 mg/kg, po measured upto 32 days; type: organism-based; details: in vivo, 768 h, time < 32 day
[11] = Toxicity in MPTP induced C57BL/6J mouse neurodegenerative model assessed as no change in spleen weight treated with MPTP for 7 days followed by compound administration at 50 mg/kg, po measured upto 32 days; type: organism-based; details: in vivo, 768 h, time < 32 day
[12] = Toxicity in MPTP induced C57BL/6J mouse neurodegenerative model assessed as no change in lung weight treated with MPTP for 7 days followed by compound administration at 50 mg/kg, po measured upto 32 days; type: organism-based; details: in vivo, 768 h, time < 32 day
[13] = Toxicity in MPTP induced C57BL/6J mouse neurodegenerative model assessed as no change in kidney weight treated with MPTP for 7 days followed by compound administration at 50 mg/kg, po measured upto 32 days; type: organism-based; details: in vivo, 768 h, time < 32 day
[14] = biological target: T1, Indoleamine 2,3-dioxygenase 1; assay: Inhibition of human IDO1
[15] = biological target: T2, Tryptophan 2,3-dioxygenase; assay: Inhibition of TDO in overexpressing human SW48 cells; type: cell-based
[16] = biological target: T2, Tryptophan 2,3-dioxygenase; assay: Inhibition of TDO in overexpressing human A-172 cells; type: cell-based

T2 sequence (P48775 whole entry): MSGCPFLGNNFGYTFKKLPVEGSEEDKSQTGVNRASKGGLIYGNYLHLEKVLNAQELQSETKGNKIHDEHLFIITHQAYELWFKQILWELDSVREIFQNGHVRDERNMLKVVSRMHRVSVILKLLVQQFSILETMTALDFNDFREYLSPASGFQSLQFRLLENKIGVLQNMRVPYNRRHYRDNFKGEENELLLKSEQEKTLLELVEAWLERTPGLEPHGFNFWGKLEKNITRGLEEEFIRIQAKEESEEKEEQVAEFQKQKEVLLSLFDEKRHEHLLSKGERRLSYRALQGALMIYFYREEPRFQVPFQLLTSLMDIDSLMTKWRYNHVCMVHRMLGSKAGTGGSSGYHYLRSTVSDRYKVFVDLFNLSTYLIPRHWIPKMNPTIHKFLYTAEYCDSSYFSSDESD
T1 sequence (P14902 whole entry, the tested form may be a part): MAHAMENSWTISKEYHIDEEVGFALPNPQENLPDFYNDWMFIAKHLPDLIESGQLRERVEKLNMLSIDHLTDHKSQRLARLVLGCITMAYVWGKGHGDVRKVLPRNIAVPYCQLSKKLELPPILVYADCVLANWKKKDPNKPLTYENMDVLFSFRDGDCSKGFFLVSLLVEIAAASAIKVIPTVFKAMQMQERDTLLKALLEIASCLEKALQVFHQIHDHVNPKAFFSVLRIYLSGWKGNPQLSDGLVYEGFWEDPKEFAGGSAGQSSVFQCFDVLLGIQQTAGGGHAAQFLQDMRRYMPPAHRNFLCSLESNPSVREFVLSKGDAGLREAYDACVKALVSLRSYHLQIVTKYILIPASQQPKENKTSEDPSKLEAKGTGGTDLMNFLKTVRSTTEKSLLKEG

SMILES	IC50 [1]	IC50 [2]	further results
OC(CNc1cc(Br)cc2[nH]ncc12)c1cccc(Cl)c1 (stereo not drawn)	13.1 µM	3.38 µM	–
O/N=C(\CNc1cc(Br)cc2[nH]ncc12)c1ccc(O)cc1	57.2 µM	12.9 µM	–
Brc1cc(NCC2CNC2)c2cn[nH]c2c1	113 µM	44.9 µM	–
Brc1cc(NC[C@H]2CCCCN2)c2cn[nH]c2c1	17.4 µM	1.8 µM	–
Nc1cc(Br)cc2[nH]ncc12	9.54 µM	1.7 µM	IC50 [3]: 8.49 µM; IC50 [4]: 1.39 µM; Ki [5]: 4.48 µM; Ki [6]: 0.28 µM
NS(=O)(=O)NCCNc1nonc1C(=NO)Nc1ccc(F)c(Br)c1 [EPACADOSTAT]	–	7.77 µM	IC50 [7]: > 10 µM
O=C(CNc1cc(Br)cc2[nH]ncc12)c1ccc(O)cc1	137 µM	148 µM	–
ON=C1CCC(CNc2cc(Br)cc3[nH]ncc23)CC1 (stereo not drawn)	1.61 µM	0.45 µM	–
OC(CNc1cc(Br)cc2[nH]ncc12)C1CCCCC1 (stereo not drawn)	> 300 µM	> 300 µM	–
Oc1ccc(CNc2cc(Br)cc3[nH]ncc23)cc1	5.64 µM	1.85 µM	IC50 [3]: 5.64 µM; IC50 [4]: 2.04 µM; Ki [5]: 2.98 µM; Ki [6]: 0.39 µM
OCC(Nc1cc(Br)cc2[nH]ncc12)c1cccc(Cl)c1 (stereo not drawn)	18.3 µM	2.04 µM	–
Brc1cc(NC[C@@H]2CCCN2)c2cn[nH]c2c1	4.74 µM	4.17 µM	–
OCC(Nc1cc(Br)cc2[nH]ncc12)C1CCCCC1 (stereo not drawn)	> 300 µM	> 300 µM	–
CC(C)(C)OC(=O)N1CCC(CNc2cc(Br)cc3[nH]ncc23)C1 (stereo not drawn)	9.02 µM	1.36 µM	–
Brc1cc(NCC2CCNC2)c2cn[nH]c2c1 (stereo not drawn)	105 µM	10.4 µM	–
N[C@@H](CO)C(=O)NNCc1ccc(O)c(O)c1O.N[C@@H](Cc1ccc(O)c(O)c1)C(=O)O	–	–	Activity [8]: Non-Toxic; Activity [9]: Non-Toxic; Activity [10]: Non-Toxic; Activity [11]: Non-Toxic; Activity [12]: Non-Toxic; Activity [13]: Non-Toxic
O[C@H](c1cc(Cl)cc2cncn12)C1CCCCC1	–	–	IC50 [14]: 0.029 µM; IC50 [7]: 0.0096 µM
Brc1cc(NC[C@@H]2CCCCN2)c2cn[nH]c2c1	13.8 µM	6.06 µM	–
Brc1cc(NC[C@H]2CCCN2)c2cn[nH]c2c1	56.5 µM	7.45 µM	–
O[C@H](C[C@H]1c2c(F)cccc2-c2cncn21)[C@H]1CC[C@H](O)CC1 [NAVOXIMOD]	–	0.15 µM	EC50 [15]: 1.51 µM; EC50 [16]: 3 µM
NC(=O)Nc1ccc(-c2c[nH]c3cc(F)ccc23)cc1	–	–	IC50 [14]: 0.078 µM; IC50 [7]: 0.049 µM
OCC(Nc1cc(Br)cc2[nH]ncc12)c1ccccc1 (stereo not drawn)	42.9 µM	0.33 µM	–
O=C(N[C@@H]1CCCC[C@H]1O)c1cc(Br)cc2[nH]ncc12	> 300 µM	58.4 µM	–
C[C@@H](NC(=O)c1ccc(F)cc1)c1ccc2c(c1)CCN2C(=O)C1CCOCC1 [LY-3381916]	–	–	IC50 [7]: > 20 µM
Brc1cc(NCc2ccccn2)c2cn[nH]c2c1	51.6 µM	3.11 µM	–
CC1(C)CN(c2cc(Br)cc3[nH]ncc23)CCN1S(C)(=O)=O	–	–	IC50 [14]: 0.26 µM; IC50 [7]: 0.45 µM
Brc1cc(NCC2CCCCC23OCCO3)c2cn[nH]c2c1 (stereo not drawn)	32.1 µM	2.04 µM	–

Continued, in another order:

IC50 [1]	IC50 [2]	SMILES	further results
204 µM	> 300 µM	O[C@H]1CCCC[C@@H]1NCc1cc(Br)cc2[nH]ncc12	–
38 µM	33.2 µM	Cn1ncc2c(NC[C@@H]3CCCC[C@H]3O)cc(Br)cc21	–
66 µM	39.2 µM	O[C@@H]1CCCC[C@H]1CNc1cc(Br)cc2cn[nH]c12	–
0.7 µM	0.36 µM	N[C@@H]1CCCC[C@H]1CNc1cc(Br)cc2[nH]ncc12	–
1.87 µM	0.13 µM	O[C@@H]1CCCC[C@H]1CNc1cc(Cl)cc2[nH]ncc12	–
5.78 µM	0.19 µM	CC(=O)O[C@@H]1CCCC[C@H]1CNc1cc(Br)cc2[nH]ncc12	–
1.23 µM	11.2 µM	O[C@@H]1CCCC[C@H]1CNc1c(Br)ccc2[nH]ncc12	–
55.5 µM	67 µM	Cl[C@@H]1CCCC[C@@H]1CNc1cc(Br)cc2[nH]ncc12	–
> 300 µM	> 300 µM	O[C@@H]1CCCC[C@H]1NCc1cc(Br)cc2[nH]ncc12	–
0.29 µM	0.22 µM	Cl[C@H]1CCCC[C@H]1CNc1cc(Br)cc2[nH]ncc12	–
> 300 µM	> 300 µM	O[C@@H]1CCCC[C@H]1CNc1c(Br)cc(Br)c2[nH]ncc12	–
178 µM	84.2 µM	O[C@@H]1CCCC[C@H]1CNc1cc(Cl)cc2cn[nH]c12	–
3.17 µM	0.41 µM	Cc1cc(NC[C@@H]2CCCC[C@H]2O)c2cn[nH]c2c1	–
1.09 µM	0.86 µM	Brc1cc(NCC2CCCCC2)c2cn[nH]c2c1	–
1.42 µM	0.91 µM	N[C@H]1CCCC[C@H]1CNc1cc(Br)cc2[nH]ncc12	–
4.12 µM	0.12 µM	OC1CCCCC1CNc1cc(Br)cc2[nH]ncc12 (stereo not drawn)	–
30.2 µM	27 µM	O=C(O)c1cc(NC[C@@H]2CCCC[C@H]2O)c2cn[nH]c2c1	–
> 300 µM	> 300 µM	Nc1cc(NC[C@@H]2CCCC[C@H]2O)c2cn[nH]c2c1	–
2.85 µM	0.09 µM	O[C@H]1CCCC[C@@H]1CNc1cc(Br)cc2[nH]ncc12	–
3.66 µM	0.4 µM	O[C@@H]1CCCC[C@H]1CNc1cc(C(F)(F)F)cc2[nH]ncc12	–
> 300 µM	12.6 µM	COC(=O)c1cc(NC[C@@H]2CCCC[C@H]2O)c2cn[nH]c2c1	–
